Source: patent US20110038921A1, “METHODS AND COMPOSITIONS FOR TEMPORAL RELEASE OF AGENTS FROM A BIODEGRADABLE SCAFFOLD” (Clemson University Research Foundation, priority 2009, published 2011)

Experiments:
MMP-1 [1] = experiment: LPS-stimulated MMP-1 expression in U937 macrophages, ELISA of culture medium; format: cell-based, human; settings: 10 μM PD98059, 100 ng/ml LPS, 24 h
Protocol: (§1) FIGS. 2A-D. A. E. coli and A. actinomycetemcomitans LPS activate MAPK pathways in macrophages. RAW 264.7 cells were stimulated for 15 min with LPS and whole cell lysates were used for Western blot analysis. […] B. A. actinomycetemcomitans LPS stimulation of IL-6 requires p38 MAPK signaling. Wild-type and p38 MAPK deficient cells were stimulated with A. actinomycetemcomitans LPS for 24 hrs (white bars). Cells were rescued with pcDNA containing p38a cDNA (p38α) in p38^−/− cells but the dominant negative mutant (p38AF) was not able to restore LPS-induced IL-6 expression. C. […] U937 macrophages were treated with 100 ng/ml of LPS in the presence or absence of 10 μM of PD98059 for 24 h. After the treatment, MMP-1 in culture medium was quantified by ELISA. D. Nuclear proteins were extracted from cells for electrophoretic mobility shift assay to determine AP-1 DNA-binding activity.

AP-1 = AP-1 DNA-binding activity, electrophoretic mobility shift assay on nuclear proteins of U937 macrophages; format: cell-based, human; settings: 10 μM PD98059, 100 ng/ml LPS, 24 h
Protocol: as §1

IL-6 = experiment: U937 macrophages exposed to inhibitor-embedded scaffold with LPS, IL-6 ELISA; format: cell-based, human; settings: inhibitor released from PLGA-collagen scaffold; LPS 100 ng/ml; 24 hrs
Protocol: (§2) FIGS. 9A-B. Human U937 macrophages were exposed to control scaffold, PD98059-embedded scaffold, or SB203580-embedded scaffold in the presence or absence of LPS (100 ng/ml) for 24 hrs. After the exposure, culture medium was collected for ELISA to quantify IL-6 (A) or MMP-1 (B).

MMP-1 [2] = experiment: U937 macrophages exposed to inhibitor-embedded scaffold with LPS, MMP-1 ELISA; format: cell-based, human; settings: inhibitor released from PLGA-collagen scaffold; LPS 100 ng/ml; 24 hrs
Protocol: as §2

[3] = Isoelectric point / hydrophobicity; format: physicochemical
MMP expression = settings: macrophages, fibroblasts, endothelial cells, epithelial cells; cited from earlier work
MMP-1 [4] = settings: rabbit model of osteoarthritis; cited from earlier work
[5] = collagen; with literature reference 123; cited from earlier work

Row | Molecule | IL-6 in LPS stimulated cultures (IL-6) | MMP-1 in LPS stimulated cultures (MMP-1 [2]) | MMP expression (MMP expression) | further results
1 | COc1cccc(-c2cc(=O)c3ccccc3o2)c1N [PD98059] | significant inhibition | significant inhibition | inhibit MMP expression | LPS-stimulated MMP-1 expression (MMP-1 [1]): inhibitory effect; AP-1 DNA-binding activity (AP-1): inhibitory effect; Hydrophobicity [3]: hydrophobic; MMP-1 production by chondrocytes (MMP-1 [4]): decreased MMP-1 production
2 | C[S+]([O-])c1ccc(-c2nc(-c3ccncc3)c(-c3ccc(F)cc3)[nH]2)cc1 (centres unmarked) [SB203580] | significant inhibition | significant inhibition |  | 
3 | N#CC(=C(/N)Sc1ccccc1N)/C(C#N)=C(\N)Sc1ccccc1N [U0126] |  |  | inhibit MMP expression | 
4 | Collagen |  |  |  | Isoelectric point [5]: 5.5
